Data: PubChem BioAssay AID1963985 (Molecular Pharmacology Branch, DTP, NCI, 2024)
Each block holds one compound with its values, some of them ahead of it.

System: 252836-082-R-J2-PDC tumor spheroids, viability
Assay: Anticancer human tumor 252836-082-R-J2-PDC patient-derived head and neck squamous cell carcinoma cell line growth inhibition [PI3K]
Conditions: spheroids with HUVEC and MSC; for IC50: curve of first compound; for viability, T/C: stronger effect = lower value
Method in brief: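 Three cell types, namely tumor cells, endothelial cells and mesenchymal stem cells, formed each spheroid. Combinations with four PI3K inhibitors were screened at clinically achievable concentrations decreasing by half-log, and spheroid viability was recorded.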

[1] = second compound 0.00316 µM, first compound 0.0316 µM
[2] = second compound 0.00316 µM, first compound 0.1 µM
[3] = second compound 0.01 µM, first compound 0.0316 µM
[4] = second compound 0.01 µM, first compound 0.1 µM
[5] = second compound 0.0316 µM, first compound 0.0316 µM
[6] = second compound 0.0316 µM, first compound 0.1 µM
[7] = second compound 0.1 µM, first compound 0.0316 µM
[8] = second compound 0.1 µM, first compound 0.1 µM
[9] = second compound 0.316 µM, first compound 0.0316 µM
[10] = second compound 0.316 µM, first compound 0.1 µM
[11] = second compound 1 µM, first compound 0.0316 µM
[12] = second compound 1 µM, first compound 0.1 µM
[13] = second compound 0.00316 µM, first compound 0.316 µM
[14] = second compound 0.00316 µM, first compound 1 µM
[15] = second compound 0.00316 µM, first compound 3.16 µM
[16] = second compound 0.00316 µM, first compound 10 µM
[17] = second compound 0.01 µM, first compound 0.316 µM
[18] = second compound 0.01 µM, first compound 1 µM
[19] = second compound 0.01 µM, first compound 3.16 µM
[20] = second compound 0.01 µM, first compound 10 µM
[21] = second compound 0.0316 µM, first compound 0.316 µM
[22] = second compound 0.0316 µM, first compound 1 µM
[23] = second compound 0.0316 µM, first compound 3.16 µM
[24] = second compound 0.0316 µM, first compound 10 µM
[25] = second compound 0.1 µM, first compound 0.316 µM
[26] = second compound 0.1 µM, first compound 1 µM
[27] = second compound 0.1 µM, first compound 3.16 µM
[28] = second compound 0.1 µM, first compound 10 µM
[29] = second compound 0.316 µM, first compound 0.316 µM
[30] = second compound 0.316 µM, first compound 1 µM
[31] = second compound 0.316 µM, first compound 3.16 µM
[32] = second compound 0.316 µM, first compound 10 µM
[33] = second compound 1 µM, first compound 0.316 µM
[34] = second compound 1 µM, first compound 1 µM
[35] = second compound 1 µM, first compound 3.16 µM
[36] = second compound 1 µM, first compound 10 µM
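Also: spheroids exposed to agents for seven days before readout.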
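For viability, T/C in this document: percent of vehicle DMSO control viability so 100% = untreated growth.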

IC50 (second compound 0.00316 µM): 19 nM
IC50 (second compound 0.01 µM): 16.5 nM
IC50 (second compound 0.0316 µM): 3.33 nM
IC50 (second compound 0.1 µM): < 0.316 nM
IC50 (second compound 0.316 µM): < 0.316 nM
IC50 (second compound 1 µM): < 0.316 nM
SMILES: CC(C)n1nc(-c2ccc3oc(N)nc3c2)c2c(N)ncnc21 + COc1c(OCCCN2CCOCC2)ccc2c3n(c(=NC(=O)c4cnc(N)nc4)nc12)CCN3
viability, T/C (second compound 0.00316 µM, first compound 0.000316 µM): 81.7%
viability, T/C (second compound 0.00316 µM, first compound 0.001 µM): 81.9%
viability, T/C (second compound 0.00316 µM, first compound 0.00316 µM): 74.9%
viability, T/C (second compound 0.00316 µM, first compound 0.01 µM): 58.1%
viability, T/C [1]: 43.1%
viability, T/C [2]: 20.8%
viability, T/C (second compound 0.01 µM, first compound 0.000316 µM): 78.7%
viability, T/C (second compound 0.01 µM, first compound 0.001 µM): 73.5%
viability, T/C (second compound 0.01 µM, first compound 0.00316 µM): 74.9%
viability, T/C (second compound 0.01 µM, first compound 0.01 µM): 57.8%
viability, T/C [3]: 38.5%
viability, T/C [4]: 20.5%
viability, T/C (second compound 0.0316 µM, first compound 0.000316 µM): 58.3%
viability, T/C (second compound 0.0316 µM, first compound 0.001 µM): 58.4%
viability, T/C (second compound 0.0316 µM, first compound 0.00316 µM): 48.4%
viability, T/C (second compound 0.0316 µM, first compound 0.01 µM): 42.1%
viability, T/C [5]: 31.4%
viability, T/C [6]: 15.3%
viability, T/C (second compound 0.1 µM, first compound 0.000316 µM): 30.4%
viability, T/C (second compound 0.1 µM, first compound 0.001 µM): 34.8%
viability, T/C (second compound 0.1 µM, first compound 0.00316 µM): 33.1%
viability, T/C (second compound 0.1 µM, first compound 0.01 µM): 28.1%
viability, T/C [7]: 18.3%
viability, T/C [8]: 9.85%
viability, T/C (second compound 0.316 µM, first compound 0.000316 µM): 17.8%
viability, T/C (second compound 0.316 µM, first compound 0.001 µM): 18.9%
viability, T/C (second compound 0.316 µM, first compound 0.00316 µM): 12.1%
viability, T/C (second compound 0.316 µM, first compound 0.01 µM): 9.92%
viability, T/C [9]: 8.75%
viability, T/C [10]: 2.66%
viability, T/C (second compound 1 µM, first compound 0.000316 µM): 4.87%
viability, T/C (second compound 1 µM, first compound 0.001 µM): 3.85%
viability, T/C (second compound 1 µM, first compound 0.00316 µM): 4.39%
viability, T/C (second compound 1 µM, first compound 0.01 µM): 3.18%
viability, T/C [11]: 3.53%
viability, T/C [12]: 2.06%

IC50 (second compound 0.00316 µM): 5820 nM
IC50 (second compound 0.01 µM): 5250 nM
IC50 (second compound 0.0316 µM): 3230 nM
IC50 (second compound 0.1 µM): < 31.6 nM
IC50 (second compound 0.316 µM): < 31.6 nM
IC50 (second compound 1 µM): < 31.6 nM
SMILES: CC1(C)CCC(CN2CCN(c3ccc(C(=O)NS(=O)(=O)c4ccc(NCC5CCOCC5)c([N+](=O)[O-])c4)c(Oc4cnc5[nH]ccc5c4)c3)CC2)=C(c2ccc(Cl)cc2)C1 + COc1c(OCCCN2CCOCC2)ccc2c3n(c(=NC(=O)c4cnc(N)nc4)nc12)CCN3
viability, T/C [1]: 89.7%
viability, T/C [2]: 89.2%
viability, T/C [13]: 89.3%
viability, T/C [14]: 83.9%
viability, T/C [15]: 80.7%
viability, T/C [16]: 23%
viability, T/C [3]: 75.8%
viability, T/C [4]: 67.3%
viability, T/C [17]: 76.2%
viability, T/C [18]: 84.8%
viability, T/C [19]: 80.4%
viability, T/C [20]: 15.9%
viability, T/C [5]: 59.2%
viability, T/C [6]: 56%
viability, T/C [21]: 53.3%
viability, T/C [22]: 58.9%
viability, T/C [23]: 50.2%
viability, T/C [24]: 13.9%
viability, T/C [7]: 35.9%
viability, T/C [8]: 35.8%
viability, T/C [25]: 37%
viability, T/C [26]: 35.3%
viability, T/C [27]: 45.2%
viability, T/C [28]: 14.2%
viability, T/C [9]: 17.2%
viability, T/C [10]: 16.5%
viability, T/C [29]: 15.8%
viability, T/C [30]: 16.9%
viability, T/C [31]: 17.1%
viability, T/C [32]: 5.65%
viability, T/C [11]: 5.01%
viability, T/C [12]: 3.96%
viability, T/C [33]: 4.59%
viability, T/C [34]: 3.64%
viability, T/C [35]: 4.04%
viability, T/C [36]: 1.11%

IC50 (second compound 0.00316 µM): > 10000 nM
IC50 (second compound 0.01 µM): > 10000 nM
IC50 (second compound 0.0316 µM): > 10000 nM
IC50 (second compound 0.1 µM): < 31.6 nM
IC50 (second compound 0.316 µM): < 31.6 nM
IC50 (second compound 1 µM): < 31.6 nM
SMILES: C[C@@H](NC(=O)c1ncnc(N)c1Cl)c1ncc(C(=O)Nc2cc(C(F)(F)F)c(Cl)cn2)s1 + COc1c(OCCCN2CCOCC2)ccc2c3n(c(=NC(=O)c4cnc(N)nc4)nc12)CCN3
viability, T/C [1]: 89.6%
viability, T/C [2]: 77.8%
viability, T/C [13]: 104%
viability, T/C [14]: 84.7%
viability, T/C [15]: 94.5%
viability, T/C [16]: 85.8%
viability, T/C [3]: 81%
viability, T/C [4]: 71.4%
viability, T/C [17]: 79.5%
viability, T/C [18]: 77.5%
viability, T/C [19]: 72.4%
viability, T/C [20]: 84.2%
viability, T/C [5]: 69.6%
viability, T/C [6]: 66.1%
viability, T/C [21]: 80.5%
viability, T/C [22]: 56%
viability, T/C [23]: 62.1%
viability, T/C [24]: 59.6%
viability, T/C [7]: 37.6%
viability, T/C [8]: 39.1%
viability, T/C [25]: 39.9%
viability, T/C [26]: 37%
viability, T/C [27]: 43.3%
viability, T/C [28]: 32.1%
viability, T/C [9]: 18.4%
viability, T/C [10]: 16.6%
viability, T/C [29]: 21%
viability, T/C [30]: 17.7%
viability, T/C [31]: 17.2%
viability, T/C [32]: 9.8%
viability, T/C [11]: 5.39%
viability, T/C [12]: 5.07%
viability, T/C [33]: 5.62%
viability, T/C [34]: 6.77%
viability, T/C [35]: 5.91%
viability, T/C [36]: 1.42%
